From patent US20160287589A1, “SUBSTITUTED-IMIDAZOPYRIDAZINES” (BAYER PHARMA AKTIENGESELLSCHAFT, priority 2013, published 2016) come the findings set out here.

In test [1] the target is T1, MKNK1 (Homo sapiens, UniProt Q9BUB5, T385D).
T1 construct: GST (N); purchased Carna Biosciences 02-145; host or cells: insect cells (baculovirus expression system)
The experiment in a line: MKNK1 kinase assay (MKNK1 TR-FRET assay). The class given is biochemical. Conditions: Table 1d; 10 μM ATP, 15 min preincubation. In general terms: In TR-FRET formats the signal depends on donor and acceptor labels being close together.

The target in test [2] is T1, MKNK1. The experiment in a line: MKNK1 kinase high ATP assay (TR-FRET-based). The class given is biochemical. Conditions: Table 2d; 2 mM ATP, 15 min preincubation. The gist of the method:
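GST-tagged full-length human MKNK1 (aa 1-424, T344D) from insect cells, preincubated with compound 15 min at 22 °C. Reaction 30 min at 22 °C with 2 mM ATP and 0.06 μM biotinylated peptide in HEPES pH 7.5, Mg2+, DTT. Phosphopeptide detected by TR-FRET (665/622 ratio) with anti-pS6 (pSer236) antibody; normalised to no-inhibitor and no-enzyme controls.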

T1 sequence (Q9BUB5 1-424 isoform Q9BUB5-2 T344D): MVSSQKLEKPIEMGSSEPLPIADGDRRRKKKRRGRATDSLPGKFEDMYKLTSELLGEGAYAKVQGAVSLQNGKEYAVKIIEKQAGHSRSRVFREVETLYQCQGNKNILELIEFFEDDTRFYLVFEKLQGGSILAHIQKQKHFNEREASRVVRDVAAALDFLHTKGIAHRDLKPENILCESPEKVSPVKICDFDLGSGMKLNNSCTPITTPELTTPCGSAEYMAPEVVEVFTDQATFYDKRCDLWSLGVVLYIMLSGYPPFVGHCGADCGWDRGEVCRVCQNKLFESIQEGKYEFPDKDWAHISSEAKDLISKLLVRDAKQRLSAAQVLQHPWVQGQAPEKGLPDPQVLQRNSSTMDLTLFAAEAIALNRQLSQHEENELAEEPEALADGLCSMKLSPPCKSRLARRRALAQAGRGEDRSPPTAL

Regarding `COc1nccc2oc(-c3cnc4ccc(OC[C@H]5CN(C(=O)C(F)(F)F)CCO5)nn34)cc12` [IV-10, 2,2,2-Trifluoro-1-[(2R)-2-({[3-(4-methoxyfuro[3,2-c]pyridin-2-yl)imidazo-[1,2-b]pyridazin-6-yl]oxy}methyl)morpholin-4-yl]ethanone], the IC50 (in general, the point on the concentration scale where inhibition reaches its midpoint) on MKNK1 [1] came out at 7 nM; against MKNK1 [2] it was 17 nM.

`COc1nccc2oc(-c3cnc4ccc(OC[C@H]5CN(C(=O)C(C)(C)C)CCO5)nn34)cc12` [IV-11, 1-[(2R)-2-({[3-(4-Methoxyfuro[3,2-c]pyridin-2-yl)imidazo[1,2-b]pyridazin-6-yl]oxy}-methyl)morpholin-4-yl]-2,2-dimethylpropan-1-one]: the IC50 stood at 6 nM against MKNK1 [1] and 25 nM on MKNK1 [2].

Take `CC(C)Oc1nccc2oc(-c3cnc4ccc(OC[C@H]5CNCC(=O)N5)nn34)cc12` [IV-13, (6R)-6-[({3-[4-(Propan-2-yloxy)furo[3,2-c]pyridin-2-yl]imidazo[1,2-b]pyridazin-6-yl}oxy)methyl]piperazin-2-one]: the IC50 against MKNK1 [1] was determined as 22 nM; against MKNK1 [2], 43 nM.

For `CCNc1nccc2oc(-c3cnc4ccc(OC[C@H]5CCC(=O)N5)nn34)cc12` [IV-14, (5R)-5-[({3-[4-(Ethylamino)furo[3,2-c]pyridin-2-yl]imidazo[1,2-b]pyridazin-6-yl}oxy)methyl]pyrrolidin-2-one], the figures for the half-inhibitory concentration (IC50) at MKNK1 [1] and against MKNK1 [2] were 1 nM and 2 nM, respectively.
